The source of these data is patent US20220257619A1, “LONG-ACTING FORMULATIONS OF TENOFOVIR ALAFENAMIDE” (Gilead Sciences, Inc., priority 2019, published 2022).

Values after ≈ are worked out from the molar mass of the structure shown. Like-named read-outs stand apart in the source and are kept apart here. Marks after values point to notes of the source that are not given here.

Data set [1] is described as follows: physchem. The following applies: 37 °C, organic solvent or mixture, thermodynamic from solid.
Experimental: Briefly, samples were prepared by mixing active agent and solvent and were tested at various time points after mixing and after storage at various temperatures. The samples were tested for the solubility of the active agent (mg/mL), calculated as the free base equivalent. Each data point is the average of two replicates unless otherwise specified. The data points with an asterisk (*) were taken at 4 days, as opposed to 5 days.
[2] abbreviates: solvent BB, 37° C., asterisk: taken at 4 days, as opposed to 5 days.

As for `CC(C)OC(=O)[C@H](C)N[P@](=O)(CO[C@H](C)Cn1cnc2c(N)ncnc21)Oc1ccccc1` [TAF Free base, (S)-isopropyl-2-(((S)-((((R)-1-(6-amino-9H-purin-9-yl)propan-2-yl)oxy)methyl)(phenoxy)phosphoryl)amino)propanoate], the “Solubility (mg/mL, Calculated as Free Base Equivalent)” value under setting [2] is reported as 5.0 mg/mL. Moreover, the solubility (in general, the dissolved amount per volume that the medium holds) at 1 day in data set [1] (ACN) was determined as 15 mg/mL (≈ 31.5 mM); in data set [1] (DCM), 146 mg/mL (≈ 306 mM); in data set [1] (DMSO), 96 mg/mL (≈ 201 mM); in data set [1] (NMP), 96 mg/mL (≈ 201 mM); in data set [1] (PC), 15 mg/mL (≈ 31.5 mM). The solubility at 5 days turned out to be 13 mg/mL (≈ 27.3 mM) in data set [1] (ACN); 384 mg/mL (≈ 806 mM) in data set [1] (DCM); 182 mg/mL (≈ 382 mM) in data set [1] (DMSO); 161 mg/mL (≈ 338 mM) in data set [1] (NMP); 26 mg/mL (≈ 54.6 mM) in data set [1] (PC).
For “tenofovir alafenamide hemifumarate [TAF Hemifumarate]”, the “Solubility (mg/mL, Calculated as Free Base Equivalent)” value is, setting by setting: (solvent ACN, 37° C./5 days) 11 mg/mL; under setting [2], 3.9* mg/mL; (solvent DCM, 37° C./5 days) 97 mg/mL; (solvent DMSO, 37° C./5 days) 132 mg/mL; (solvent NMP, 37° C./5 days) 160 mg/mL; (solvent PC, 37° C./5 days) 22 mg/mL.
